Where two headings read alike, the source gives them in different places.
Assays:
[1] = test system: primary human total T-cells; experiment: Primary human total T-cell activation: IL-2 secretion, Biological Example 2; format: cell-based; details: 48 hours, fold change over baseline; for fold induction at 0.3 µM: inhibitor 0.3 μM; for fold induction at 1 µM: inhibitor 1 μM; for fold induction at 3 µM: inhibitor 3 μM
Cbl-b = Cbl-b (Homo sapiens (Human), UniProt Q13191); experiment: Cbl-b displacement assay (Cbl-b inhibition assay), TR-FRET probe displacement, Biological Example 1; format: binding
Cbl-b, sequence (Q13191 36-427): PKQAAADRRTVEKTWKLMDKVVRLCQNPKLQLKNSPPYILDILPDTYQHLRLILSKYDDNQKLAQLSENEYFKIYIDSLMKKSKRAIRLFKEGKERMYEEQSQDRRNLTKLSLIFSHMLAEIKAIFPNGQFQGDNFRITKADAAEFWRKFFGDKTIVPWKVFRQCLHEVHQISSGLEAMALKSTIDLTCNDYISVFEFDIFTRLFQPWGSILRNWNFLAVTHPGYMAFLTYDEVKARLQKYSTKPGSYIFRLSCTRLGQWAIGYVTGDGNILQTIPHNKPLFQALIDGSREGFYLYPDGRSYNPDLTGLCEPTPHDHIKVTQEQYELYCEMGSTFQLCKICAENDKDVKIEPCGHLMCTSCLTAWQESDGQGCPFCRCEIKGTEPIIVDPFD
Experimental: Candidate compounds were evaluated for their ability to bind and inhibit Cbl-b, an E3 ubiquitin-protein ligase, as evidenced by their ability to displace a fluorophore-labeled probe (Example 46) bound to Cbl-b.
The ability of candidate compounds to displace a known inhibitor and thereby inhibit Cbl-b activity was measured by monitoring the interaction of Cbl-b with a fluorophore-labeled probe in the presence of the candidate compound. A truncated variant of Cbl-b (UniProt number Q13191; SEQ ID NO:1) containing an Avitag at its N-terminus was co-expressed with BirA biotin ligase and purified using a standard protocol (see Dou et al., Nature Structural and Molecular Biology 8: 982-987, 2013; Avidity LLC).
Fluorescently-labeled inhibitor probe was synthesized and tagged with BODIPY FL (Example 46). Cbl-b displacement assays were performed in a 384-well plate at room temperature in a 10 μL reaction volume by pre-incubating 0.5 nM Cbl-b or 0.125 nM Cbl-b (final concentration, indicated as “High” and “Low”, respectively) in an assay buffer containing 20 mM HEPES pH 7.5, 150 mM NaCl, 0.01% Triton X-100, 0.01% BSA, and 0.5 mM TCEP in the presence of a candidate compound in 1% DMSO (final concentration) for 1 hour. After incubation in the presence of the candidate compound, the plate was incubated for an additional 1 hour in the presence of an approximate EC40 binding saturation consisting of 150 nM fluorescently-labeled inhibitor probe and 2 nM Streptavidin-Terbium (Cisbio) (final concentrations). Following the 1 hour incubation, the plates were read for TR-FRET signal at 520/620 nM using an Envision plate reader (Perkin Elmer).

[2] = test system: primary human total T-cells; experiment: Primary human total T-cell activation: CD25 surface staining, Biological Example 2; format: cell-based; details: 48 hours, fold change over baseline; for fold induction at 0.3 µM: inhibitor 0.3 μM; for fold induction at 1 µM: inhibitor 1 μM; for fold induction at 3 µM: inhibitor 3 μM
[3] = anti-CD3/anti-CD28 co-stimulation
[4] = anti-CD3/anti-CD28 co-stimulation, read-out: IL-2 secretion CD3/CD28 1 μM
[5] = anti-CD3 alone, read-out: IL-2 secretion CD3 1 μM
[6] = 0.5 nM Cbl-b final concentration (High), read-out: Cbl-b activity IC50 (High)
[7] = anti-CD3/anti-CD28 co-stimulation, read-out: CD25 staining CD3/CD28 1 μM
[8] = anti-CD3 alone, read-out: CD25 staining CD3 1 μM
[9] = Cbl-b concentration (High or Low) not given, read-out: IC50 values in the Cbl-b inhibition assay of Biological Example 1
[10] = 0.125 nM Cbl-b final concentration (Low), read-out: Cbl-b activity IC50 (Low)

C[C@H]1CN(Cc2cc3c(c(C(F)(F)F)c2)CN(c2cccc(C4(Cc5nncn5C)COC4)c2)C3=O)CCC1(F)F [Compound 9, (S)-6-((4,4-difluoro-3-methylpiperidin-1-yl)methyl)-2-(3-(3-((4-methyl-4H-1,2,4-triazol-3-yl)methyl)oxetan-3-yl)phenyl)-4-(trifluoromethyl)isoindolin-1-one]
fold induction at 0.3 µM [1, 3]: 11 to 15
fold induction at 1 µM [1, 4]: > 15
fold induction at 1 µM [1, 5]: 0.34 to 0.66
fold induction at 3 µM ([1]; anti-CD3 alone): 0.34 to 0.66
IC50 (Cbl-b; [6]): 5.1 to 100 nM
fold induction at 0.3 µM [2, 3]: 1.25 to 1.39
fold induction at 1 µM [2, 7]: > 1.39
fold induction at 1 µM [2, 8]: > 1.14
fold induction at 3 µM ([2]; anti-CD3 alone): > 1.14

Cn1cnnc1CC1(c2cccc(N3Cc4c(cc(CN5CCC(F)(F)[C@@H](C#N)C5)cc4C(F)(F)F)C3=O)c2)COC1 [Compound 10, (R)-4,4-difluoro-1-((2-(3-(3-((4-methyl-4H-1,2,4-triazol-3-yl)methyl)oxetan-3-yl)phenyl)-3-oxo-7-(trifluoromethyl)isoindolin-5-yl)methyl)piperidine-3-carbonitrile]
fold induction at 0.3 µM [1, 3]: 11 to 15
fold induction at 1 µM [1, 4]: 11 to 15
fold induction at 1 µM [1, 5]: < 0.33
fold induction at 3 µM ([1]; anti-CD3 alone): < 0.33
IC50 (Cbl-b; [6]): < 1 nM
IC50 (Cbl-b; [9]): < 1 nM
fold induction at 0.3 µM [2, 3]: 1.25 to 1.39
fold induction at 1 µM [2, 7]: 1.25 to 1.39
fold induction at 1 µM [2, 8]: 1.05 to 1.14
fold induction at 3 µM ([2]; anti-CD3 alone): 1.05 to 1.14

Cn1cnnc1CC1(c2cccc(N3Cc4c(cc(CN5CCC(F)(F)[C@H](C#N)C5)cc4C(F)(F)F)C3=O)c2)COC1 [Compound 11, (S)-4,4-difluoro-1-((2-(3-(3-((4-methyl-4H-1,2,4-triazol-3-yl)methyl)oxetan-3-yl)phenyl)-3-oxo-7-(trifluoromethyl)isoindolin-5-yl)methyl)piperidine-3-carbonitrile]
fold induction at 0.3 µM [1, 3]: < 10
fold induction at 1 µM [1, 4]: 11 to 15
fold induction at 1 µM [1, 5]: < 0.33
fold induction at 3 µM ([1]; anti-CD3 alone): < 0.33
IC50 (Cbl-b; [6]): 1 to 5 nM
IC50 (Cbl-b; [9]): 1 to 5 nM
fold induction at 0.3 µM [2, 3]: 1.25 to 1.39
fold induction at 1 µM [2, 7]: 1.25 to 1.39
fold induction at 1 µM [2, 8]: < 1.04
fold induction at 3 µM ([2]; anti-CD3 alone): < 1.04

Cn1cnnc1CC1(c2cccc(N3Cc4c(cc(CN5CCCC6(COC6)C5)cc4C(F)(F)F)C3=O)c2)COC1 [Compound 12, 6-((2-oxa-6-azaspiro[3.5]nonan-6-yl)methyl)-2-(3-(3-((4-methyl-4H-1,2,4-triazol-3-yl)methyl)oxetan-3-yl)phenyl)-4-(trifluoromethyl)isoindolin-1-one]
fold induction at 0.3 µM [1, 3]: < 10
fold induction at 1 µM [1, 4]: 11 to 15
fold induction at 1 µM [1, 5]: < 0.33
fold induction at 3 µM ([1]; anti-CD3 alone): < 0.33
IC50 (Cbl-b; [6]): 5.1 to 100 nM
IC50 (Cbl-b; [9]): 5.1 to 100 nM
fold induction at 0.3 µM [2, 3]: 1.25 to 1.39
fold induction at 1 µM [2, 7]: 1.25 to 1.39
fold induction at 1 µM [2, 8]: < 1.04
fold induction at 3 µM ([2]; anti-CD3 alone): 1.05 to 1.14

Cn1cnnc1CC1(c2cccc(N3Cc4c(cc(CN5CCC(F)(F)[C@]6(CCOC6)C5)cc4C(F)(F)F)C3=O)c2)COC1 [Compound 13, (R)-6-((10,10-difluoro-2-oxa-7-azaspiro[4.5]decan-7-yl)methyl)-2-(3-(3-((4-methyl-4H-1,2,4-triazol-3-yl)methyl)oxetan-3-yl)phenyl)-4-(trifluoromethyl)isoindolin-1-one]
fold induction at 0.3 µM [1, 3]: 11 to 15
fold induction at 1 µM [1, 4]: 11 to 15
fold induction at 1 µM [1, 5]: 0.34 to 0.66
fold induction at 3 µM ([1]; anti-CD3 alone): 0.34 to 0.66
IC50 (Cbl-b; [6]): 1 to 5 nM
fold induction at 0.3 µM [2, 3]: < 1.24
fold induction at 1 µM [2, 7]: < 1.24
fold induction at 1 µM [2, 8]: 1.05 to 1.14
fold induction at 3 µM ([2]; anti-CD3 alone): < 1.04

Cn1cnnc1CC1(c2cccc(N3Cc4c(cc(CN5CCC(F)(F)[C@@]6(CCOC6)C5)cc4C(F)(F)F)C3=O)c2)COC1 [Compound 14, (S)-6-((10,10-difluoro-2-oxa-7-azaspiro[4.5]decan-7-yl)methyl)-2-(3-(3-((4-methyl-4H-1,2,4-triazol-3-yl)methyl)oxetan-3-yl)phenyl)-4-(trifluoromethyl)isoindolin-1-one]
fold induction at 0.3 µM [1, 3]: < 10
fold induction at 1 µM [1, 4]: 11 to 15
fold induction at 1 µM [1, 5]: 0.34 to 0.66
fold induction at 3 µM ([1]; anti-CD3 alone): 0.34 to 0.66
IC50 (Cbl-b; [6]): 1 to 5 nM
fold induction at 0.3 µM [2, 3]: < 1.24
fold induction at 1 µM [2, 7]: < 1.24
fold induction at 1 µM [2, 8]: 1.05 to 1.14
fold induction at 3 µM ([2]; anti-CD3 alone): < 1.04

Cn1cnnc1CC1(c2cccc(N3Cc4c(cc(CN5CCC(F)(F)[C@H](CO)C5)cc4C(F)(F)F)C3=O)c2)COC1 [Compound 15, (S)-6-((4,4-difluoro-3-(hydroxymethyl)piperidin-1-yl)methyl)-2-(3-(3-((4-methyl-4H-1,2,4-triazol-3-yl)methyl)oxetan-3-yl)phenyl)-4-(trifluoromethyl)isoindolin-1-one]
fold induction at 0.3 µM [1, 3]: < 10
fold induction at 1 µM [1, 4]: 11 to 15
fold induction at 1 µM [1, 5]: < 0.33
fold induction at 3 µM ([1]; anti-CD3 alone): 0.34 to 0.66
IC50 (Cbl-b; [6]): 1 to 5 nM
fold induction at 0.3 µM [2, 3]: < 1.24
fold induction at 1 µM [2, 7]: < 1.24
fold induction at 1 µM [2, 8]: 1.05 to 1.14
fold induction at 3 µM ([2]; anti-CD3 alone): 1.05 to 1.14

Cn1cnnc1CC1(c2cccc(N3Cc4c(cc(CN5CCC(F)(F)[C@@H](CO)C5)cc4C(F)(F)F)C3=O)c2)COC1 [Compound 16, (R)-6-((4,4-difluoro-3-(hydroxymethyl)piperidin-1-yl)methyl)-2-(3-(3-((4-methyl-4H-1,2,4-triazol-3-yl)methyl)oxetan-3-yl)phenyl)-4-(trifluoromethyl)isoindolin-1-one]
fold induction at 0.3 µM [1, 3]: < 10
fold induction at 1 µM [1, 4]: < 10
fold induction at 1 µM [1, 5]: < 0.33
fold induction at 3 µM ([1]; anti-CD3 alone): < 0.33
IC50 (Cbl-b; [6]): 1 to 5 nM
fold induction at 0.3 µM [2, 3]: < 1.24
fold induction at 1 µM [2, 7]: < 1.24
fold induction at 1 µM [2, 8]: < 1.04
fold induction at 3 µM ([2]; anti-CD3 alone): 1.05 to 1.14

C[C@@H]1CN(Cc2cc3c(c(C(F)(F)F)c2)CN(c2cccc(C4(Cc5nncn5C)COC4)c2)C3=O)C[C@H](C)C1(F)F [Compound 17, 6-(((cis)-4,4-difluoro-3,5-dimethylpiperidin-1-yl)methyl)-2-(3-(3-((4-methyl-4H-1,2,4-triazol-3-yl)methyl)oxetan-3-yl)phenyl)-4-(trifluoromethyl)isoindolin-1-one]
fold induction at 0.3 µM [1, 3]: 11 to 15
fold induction at 1 µM [1, 4]: > 15
fold induction at 1 µM [1, 5]: > 0.66
fold induction at 3 µM ([1]; anti-CD3 alone): > 0.66
IC50 (Cbl-b; [6]): 1 to 5 nM
fold induction at 0.3 µM [2, 3]: > 1.39
fold induction at 1 µM [2, 7]: 1.25 to 1.39
fold induction at 1 µM [2, 8]: > 1.14
fold induction at 3 µM ([2]; anti-CD3 alone): > 1.14

Cn1cnnc1CC1(c2cccc(N3Cc4c(cc(CN5CCC[C@H](C#N)C5)cc4C(F)(F)F)C3=O)c2)COC1 [Compound 18, (S)-1-((2-(3-(3-((4-methyl-4H-1,2,4-triazol-3-yl)methyl)oxetan-3-yl)phenyl)-3-oxo-7-(trifluoromethyl)isoindolin-5-yl)methyl)piperidine-3-carbonitrile]
fold induction at 0.3 µM [1, 3]: < 10
fold induction at 1 µM [1, 4]: 11 to 15
fold induction at 1 µM [1, 5]: < 0.33
fold induction at 3 µM ([1]; anti-CD3 alone): 0.34 to 0.66
IC50 (Cbl-b; [10]): 1 to 5 nM
fold induction at 0.3 µM [2, 3]: 1.25 to 1.39
fold induction at 1 µM [2, 7]: 1.25 to 1.39
fold induction at 1 µM [2, 8]: > 1.14
fold induction at 3 µM ([2]; anti-CD3 alone): > 1.14

Cn1cnnc1CC1(c2cccc(N3Cc4c(cc(CN5CC(C(F)(F)F)C[C@H](C(F)(F)F)C5)cc4C(F)(F)F)C3=O)c2)COC1 (stereo partly drawn) [Compound 21, cis-6-{[3,5-bis(trifluoromethyl)piperidin-1-yl]methyl}-2-(3-{3-[(4-methyl-1,2,4-triazol-3-yl)methyl]oxetan-3-yl}phenyl)-4-(trifluoromethyl)-3H-isoindol-1-one]
fold induction at 0.3 µM [1, 3]: < 10
fold induction at 1 µM [1, 4]: < 10
fold induction at 1 µM [1, 5]: < 0.33
fold induction at 3 µM ([1]; anti-CD3 alone): < 0.33
IC50 (Cbl-b; [10]): 5.1 to 100 nM
IC50 (Cbl-b; [9]): 5.1 to 100 nM
fold induction at 0.3 µM [2, 3]: 1.25 to 1.39
fold induction at 1 µM [2, 7]: 1.25 to 1.39
fold induction at 1 µM [2, 8]: < 1.04
fold induction at 3 µM ([2]; anti-CD3 alone): < 1.04

CCNc1cc(C2(Cc3nncn3C)COC2)cc(N2Cc3c(cc(CN4CCC(F)(F)[C@H](C)C4)cc3C(F)(F)F)C2=O)n1 [Compound 27, (R)-6-((4,4-difluoro-3-methylpiperidin-1-yl)methyl)-2-(6-(ethylamino)-4-(3-((4-methyl-4H-1,2,4-triazol-3-yl)methyl)oxetan-3-yl)pyridin-2-yl)-4-(trifluoromethyl)iso indolin-1-one]
fold induction at 0.3 µM [1, 3]: > 15
fold induction at 1 µM [1, 4]: > 15
fold induction at 1 µM [1, 5]: > 0.66
fold induction at 3 µM ([1]; anti-CD3 alone): > 0.66
IC50 (Cbl-b; [6]): 5.1 to 100 nM
IC50 (Cbl-b; [9]): 5.1 to 100 nM
fold induction at 0.3 µM [2, 3]: < 1.24
fold induction at 1 µM [2, 7]: < 1.24
fold induction at 1 µM [2, 8]: < 1.04
fold induction at 3 µM ([2]; anti-CD3 alone): < 1.04
